Format in all cases: cell-based
In assay [1] the test system is MDA-MB-231. In words: Cell growth inhibition assay, breast cancer cell line MDA-MB-231. The conditions noted are these: Homo sapiens; MDA-MB-231 breast cancer cell line, 5,000 cells/well. As to the method: The inhibitory effects of the compounds of the present invention against the growth of cancer cells were evaluated as shown below. The cancer cell lines including stomach cancer cell line (AGS), breast cancer cell lines (MDA-MB-231, MDA-MB-468, and BT-549), prostate cancer cell lines (LNCaP and DU-145), colon cancer cell line (HCT116), ovarian cancer cell line (SW626), liver cancer cell line (Hep3B), kidney cancer cell line (ACHN), lung cancer cell line (NCI-H23) and blood cancer cell lines (HEL92.1.7 and U266) were cultured under the protocol provided by each supplier. A medium supplemented with 10 ng/mL of IL-6 was used for LNCaP, a prostate cancer cell line, when treated with a drug. Each type of cells to be used in experiments were sub-cultured in a 96-well plate by counting the exact number of cells using Tali™ Image-based Cytometer (Life Technologies). In a 96-well plate, AGS, HCT116, and DU-145 were employed with 3,000 cells/well; NCI-H23, SW626, Hep3B, ACHN, BT-549, MDA-MB-231, HEL92.1.7, and U266 were employed with 5,000 cells/well; and LNCaP and MDA-MB-468 were employed with 10,000 cells/well. The cells were treated with the compounds listed in Examples which were diluted in various concentrations. Upon completion of the compounds treatment, AGS, HCT116, SW626, DU145, NCI-H23, Hep3B, ACHN, BT-549, LNCaP, HEL92.1.7, and U266 cells were cultured at 37° C. under 5% CO2 for from 72 to 96 hours, and MDA-MB-231 and MDA-MB-468 cells were cultured at 37° C. in air for from 72 to 96 hours. Subsequently, the cells were observed under microscope and drug precipitation and particular findings were investigated and recorded. And then, the 96-well plate was placed at room temperature for 30 minutes, added with 20 μL/well of CellTiter-Glo solution (Cat No. G7573, Promega) and shaken for 10 minutes, followed by being subjected to the measurement using PHERAstar™ microplate reader (BMG LABTECH) according to the supplier's general luminometer protocol. Wells where only culture liquid added without cell plating were used as a negative control, whereas wells where culture liquid containing 0.1% DMSO instead of the compounds listed in Examples were used as a positive control.

For assay [2], the system named is LNCaP. In words: Cell growth inhibition assay, prostate cancer cell line LNCaP (medium with 10 ng/mL IL-6). The conditions noted are these: Homo sapiens, medium supplemented with 10 ng/mL of IL-6, 10,000 cells/well.
The target of assay [3] is T1, STAT3 (Homo sapiens, UniProt P40763).
T1 construct: plasmid pSTAT3-TA-luc), which contains a stably operating STAT3 promoter; endogenous in cells
Kind of assay: STAT3 reporter gene assay (luciferase), LNCaP stable cell line (pSTAT3-TA-luc), IL-6 stimulation. In outline:
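Cytotoxicity was run on a duplicate plate with CellTiter-Glo, while the other plate gave luciferase read-outs from lysed LNCaP pSTAT3-TA-luc reporter cells. Cells were treated with graded compound concentrations plus IL-6 (10 ng/mL final) for 24–48 h in 3% DCC-FBS medium. Unstimulated and stimulated wells served as negative and positive controls.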
Background: Reporter assays use an easily measured gene product as a stand-in for the process of interest.

Structures are written as SMILES. Some results are limits rather than exact numbers.

For 21 compounds, IC50 results are on record in patent US10562912B2 (C&C Research Laboratories, priority 2013, dated 2020).

For orientation: IC50 means the concentration that gives 50% inhibition. Read a high IC50 as weaker potency in that assay.

T1 sequence (P40763 whole entry): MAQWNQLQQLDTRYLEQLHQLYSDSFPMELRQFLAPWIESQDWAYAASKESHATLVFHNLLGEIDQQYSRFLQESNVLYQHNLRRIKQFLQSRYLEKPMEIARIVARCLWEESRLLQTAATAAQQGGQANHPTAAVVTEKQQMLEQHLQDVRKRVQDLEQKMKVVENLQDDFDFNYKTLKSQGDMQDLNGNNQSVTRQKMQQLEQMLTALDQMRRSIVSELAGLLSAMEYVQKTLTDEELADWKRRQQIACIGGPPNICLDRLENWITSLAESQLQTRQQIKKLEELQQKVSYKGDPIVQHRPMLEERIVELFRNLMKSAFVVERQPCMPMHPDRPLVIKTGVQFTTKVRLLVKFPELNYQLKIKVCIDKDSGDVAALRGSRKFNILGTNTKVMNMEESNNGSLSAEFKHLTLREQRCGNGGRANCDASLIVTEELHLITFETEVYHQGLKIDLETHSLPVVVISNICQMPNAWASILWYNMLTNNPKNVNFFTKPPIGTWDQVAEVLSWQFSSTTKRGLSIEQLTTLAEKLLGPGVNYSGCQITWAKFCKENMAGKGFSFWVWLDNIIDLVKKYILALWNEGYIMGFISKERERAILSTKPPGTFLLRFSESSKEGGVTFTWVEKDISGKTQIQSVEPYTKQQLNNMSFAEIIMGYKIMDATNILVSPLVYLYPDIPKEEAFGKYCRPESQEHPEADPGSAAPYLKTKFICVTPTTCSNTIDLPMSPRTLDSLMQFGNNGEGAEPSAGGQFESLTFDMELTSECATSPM

On to `CNS(=O)(=O)Nc1ccc2cc(C(=O)Nc3cccc(C(C)(C)c4ccc(F)cc4)c3)[nH]c2c1` [Example 5, N-(3-(2-(4-fluorophenyl)propan-2-yl)phenyl)-6-((N-methylsulfamoyl)amino)-1H-indole-2-carboxamide], for which the IC50 in assay [1] turned out to be 1.2 µM; in assay [2], 4.7 µM; in assay [3], 1.2 µM.

On to `CC(C)(c1ccc(F)cc1)c1cccc(NC(=O)c2cc3ccc(S(C)(=O)=O)cc3[nH]2)c1` [Example 6, N-(3-(2-(4-fluorophenyl)propan-2-yl)phenyl)-6-(methylsulfonyl)-1H-indole-2-carboxamide], for which the IC50 in assay [1], in assay [2] and in assay [3] was above 10 µM in each case.

On to `CC(C)(c1cccc(NC(=O)c2cc3ccc(NS(C)(=O)=O)cc3[nH]2)c1)c1ccccc1F` [Example 7, N-(3-(2-(2-fluorophenyl)propan-2-yl)phenyl)-6-(methylsulfonamido)-1H-indole-2-carboxamide], for which the results for the IC50 in assay [1], in assay [2] and in assay [3] were 0.35 µM, 2.4 µM and 0.31 µM, respectively.

`CC(C)(c1cccc(NC(=O)c2cc3ccc(NS(C)(=O)=O)cc3[nH]2)c1)c1cccc(OC(F)(F)F)c1` [Example 8, 6-(methylsulfonamido)-N-(3-(2-(3-(trifluoromethoxy)phenyl)propan-2-yl)phenyl)-1H-indole-2-carboxamide]: the figures for the IC50 in assay [1], in assay [2] and in assay [3] were 0.018 µM, 0.87 µM and 0.12 µM, respectively.

Consider `COc1cc(OC(F)(F)F)cc(C(C)c2cccc(NC(=O)c3cc4ccc(NS(C)(=O)=O)cc4[nH]3)c2)c1` (stereo not drawn) [Example 10, N-(3-(1-(3-methoxy-5-(trifluoromethoxy)phenyl)ethyl)phenyl)-6-(methylsulfonamido)-1H-indole-2-carboxamide], for which the figures for the IC50 in assay [1], in assay [2] and in assay [3] were 0.18 µM, 1.7 µM and 0.43 µM, respectively.

On to `CC(C)(c1cccc(NC(=O)c2cc3ccc(NS(C)(=O)=O)cc3[nH]2)c1)c1ccc(F)cc1F` [Example 11, N-(3-(2-(2,4-difluorophenyl)propan-2-yl)phenyl)-6-(methylsulfonamido)-1H-indole-2-carboxamide], for which the IC50 in assay [1] came out at 0.06 µM; in assay [2], 1.8 µM; in assay [3] it was 0.2 µM.

Turning to `COc1cccc(C(C)(C)c2cccc(NC(=O)c3cc4ccc(NS(C)(=O)=O)cc4[nH]3)c2)c1` [Example 12, N-(3-(2-(3-methoxyphenyl)propan-2-yl)phenyl)-6-(methylsulfonamido)-1H-indole-2-carboxamide], the IC50 was 0.034 µM in assay [1], 1.4 µM in assay [2] and 0.26 µM in assay [3].

With `COc1cc(NC(=O)c2cc3ccc(NS(C)(=O)=O)cc3[nH]2)cc(C(C)(C)c2cc(OC)cc(OC(F)(F)F)c2)c1` [Example 13, N-(3-methoxy-5-(2-(3-methoxy-5-(trifluoromethoxy)phenyl)propan-2-yl)phenyl)-6-(methylsulfonamido)-1H-indole-2-carboxamide], the IC50 in assay [1] amounted to 0.03 µM; in assay [2], 0.48 µM; in assay [3] it was 0.22 µM.

In the case of `CC(C)(c1ccc(F)cc1)c1cc(Br)cc(NC(=O)c2cc3ccc(NS(C)(=O)=O)cc3[nH]2)c1` [Example 14, N-(3-bromo-5-(2-(4-fluorophenyl)propan-2-yl)phenyl)-6-(methylsulfonamido)-1H-indole-2-carboxamide], the values for the 50% inhibitory concentration (IC50) in assay [1], in assay [2] and in assay [3] were 0.062 µM, 0.55 µM and 0.13 µM, respectively.

Consider `CC(C)(c1ccc(F)cc1)c1cc(NC(=O)c2cc3ccc(NS(C)(=O)=O)cc3[nH]2)cc(OC(F)F)c1` [Example 17, N-(3-(difluoromethoxy)-5-(2-(4-fluorophenyl)propan-2-yl)phenyl)-6-(methylsulfonamido)-1H-indole-2-carboxamide], for which the IC50 in assay [1] amounted to 0.19 µM; in assay [2], 0.92 µM; in assay [3], 0.14 µM.

For the compound `CC(C)(c1cc(Br)cc(NC(=O)c2cc3ccc(NS(C)(=O)=O)cc3[nH]2)c1)c1cccc(OCC(N)=O)c1` [Example 18, N-(3-(2-(3-(2-amino-2-oxoethoxy)phenyl)propan-2-yl)-5-bromophenyl)-6-(methylsulfonamido)-1H-indole-2-carboxamide], the IC50 was found to be 8.7 µM in assay [1], 9.6 µM in assay [2] and 5.4 µM in assay [3].

For the compound `CC(C)(c1cc(Br)cc(NC(=O)c2cc3ccc(NS(C)(=O)=O)cc3[nH]2)c1)c1cccc(OC(F)F)c1` [Example 20, N-(3-bromo-5-(2-(3-(difluoromethoxy)phenyl)propan-2-yl)phenyl)-6-(methylsulfonamido)-1H-indole-2-carboxamide], the IC50 in assay [1] stood at 0.15 µM; in assay [2], 1.1 µM; in assay [3] it was 0.29 µM.

In the case of `CC(C)(c1cc(Br)cc(NC(=O)c2cc3ccc(NS(C)(=O)=O)cc3[nH]2)c1)c1cc(OC(F)(F)F)ccc1F` [Example 23, N-(3-bromo-5-(2-(2-fluoro-5-(trifluoromethoxy)phenyl)propan-2-yl)phenyl)-6-(methylsulfonamido)-1H-indole-2-carboxamide], the IC50 in assay [1] came to 0.028 µM; in assay [2] it was 0.17 µM; in assay [3], 0.045 µM.

In the case of `CC(C)(c1ccc(F)cc1)c1cccc(NC(=O)c2cc3cc(OC(F)(F)F)ccc3[nH]2)c1` [Example 25, N-(3-(2-(4-fluorophenyl)propan-2-yl)phenyl)-5-(trifluoromethoxy)-1H-indole-2-carboxamide], the IC50 in assay [1] came out at 3.2 µM; in assay [2], 4.2 µM; in assay [3], 3.3 µM.

`CC(C)(c1ccc(F)cc1)c1cccc(NC(=O)c2cc3cc(NS(C)(=O)=O)ccc3s2)c1` [Example 26, N-(3-(2-(4-fluorophenyl)propan-2-yl)phenyl)-5-(methylsulfonamido)benzo[b]thiophene-2-carboxamide]: the IC50 in assay [1] amounted to 0.008 µM; in assay [2] it was 0.36 µM; in assay [3] it was 0.059 µM.

Take `CC(C)(c1cccc(NC(=O)c2cc3cc(NS(C)(=O)=O)ccc3s2)c1)c1ccc(F)cc1F` [Example 27, N-(3-(2-(2,4-difluorophenyl)propan-2-yl)phenyl)-5-(methylsulfonamido)benzo[b]thiophene-2-carboxamide]: the results for the concentration for half-maximal inhibition (IC50) in assay [1], in assay [2] and in assay [3] were 0.033 µM, 0.67 µM and 0.08 µM, respectively.

With `CC(C)(c1ccc(F)cc1)c1cccc(NC(=O)c2cc3cc(NS(C)(=O)=O)ccc3o2)c1` [Example 28, N-(3-(2-(4-fluorophenyl)propan-2-yl)phenyl)-5-(methylsulfonamido)benzofuran-2-carboxamide], the IC50 in assay [1] was determined as 1 µM; in assay [2] it was 4.7 µM; in assay [3], 0.61 µM.

On to `CC(C)(c1cccc(NC(=O)c2cc3cc(NS(C)(=O)=O)ccc3o2)c1)c1ccc(F)cc1F` [Example 29, N-(3-(2-(2,4-difluorophenyl)propan-2-yl)phenyl)-5-(methylsulfonamido)benzofuran-2-carboxamide], for which the concentration for half-maximal inhibition (IC50) in assay [1] was 0.47 µM; in assay [2], 3.8 µM; in assay [3], 0.53 µM.

For `CC(C)(c1ccc(F)cc1)c1cccc(NC(=O)c2cc3ccc(NS(C)(=O)=O)cc3s2)c1` [Example 30, N-(3-(2-(4-fluorophenyl)propan-2-yl)phenyl)-6-(methylsulfonamido)benzo[b]thiophene-2-carboxamide], the IC50 in assay [1] turned out to be 0.37 µM; in assay [2] it was 2.9 µM; in assay [3], 0.43 µM.

`CC(C)(c1cccc(NC(=O)c2cc3cc(NS(C)(=O)=O)ccc3s2)c1)c1ccccc1F` [Example 31, N-(3-(2-(2-fluorophenyl)propan-2-yl)phenyl)-5-(methylsulfonamido)benzo[b]thiophene-2-carboxamide]: the results for the IC50 in assay [1], in assay [2] and in assay [3] were 0.026 µM, 0.49 µM and 0.19 µM, respectively.

For `CC(C)(c1cccc(NC(=O)c2cc3cc(NS(C)(=O)=O)ccc3s2)c1)c1cccc(OC(F)(F)F)c1` [Example 37, 5-(methylsulfonamido)-N-(3-(2-(3-(trifluoromethoxy)phenyl)propan-2-yl)phenyl)benzo[b]thiophene-2-carboxamide], the IC50 in assay [1] was 0.016 µM; in assay [2] it was 0.39 µM; in assay [3] it was 0.046 µM.
